Experimental data as given in BindingDB's records for doi:10.1074/jbc.M113.476473 (Uppsala University, 2013).

Legend:
Pantothenate kinase [1] = biological target: T1, Pantothenate kinase (Mycobacterium tuberculosis (strain ATCC 25618 / H37Rv), UniProt P9WPA7); experiment: Biochemical Assay (ATP at Km)
T1 sequence (P9WPA7 whole entry): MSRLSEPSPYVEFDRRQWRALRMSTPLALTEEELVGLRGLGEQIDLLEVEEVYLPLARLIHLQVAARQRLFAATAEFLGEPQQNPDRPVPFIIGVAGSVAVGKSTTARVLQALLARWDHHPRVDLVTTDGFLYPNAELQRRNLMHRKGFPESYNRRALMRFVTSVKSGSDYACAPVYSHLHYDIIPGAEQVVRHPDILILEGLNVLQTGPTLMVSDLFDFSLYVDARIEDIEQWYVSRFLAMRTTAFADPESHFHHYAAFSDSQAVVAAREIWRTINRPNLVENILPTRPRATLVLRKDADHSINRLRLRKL
Description: Briefly, MtPanK activity was measured in a pyruvate kinaselactate dehydrogenase-coupled assay where the reaction rate was determined by spectrophotometric measurement of NADH consumption. IC50 measurements were performed with a suitable concentration range of inhibitory compound, while keeping the concentration of pantothenate and ATP at 122 and 395 µM, respectively, which is their respective Km.

Pantothenate kinase [2] = biological target: T1, Pantothenate kinase; experiment: Biochemical Assay (ATP at 50x Km)
Description: Briefly, MtPanK activity was measured in a pyruvate kinaselactate dehydrogenase-coupled assay where the reaction rate was determined by spectrophotometric measurement of NADH consumption. A second set of IC50 measurements were performed with the ATP concentration at 50× Km, to determine the effect of cofactor competition.

SMILES	IC50 (Pantothenate kinase [1]) [µM]	IC50 (Pantothenate kinase [2]) [µM]
CC(NC(=O)c1c(F)cccc1F)c1nnc(SCCOc2ccc(F)cc2)n1C (stereo not given) [Triazole 1f]	1.09	14
N#Cc1ccc(-c2ccc(COC(=O)O)cc2CN2CCN(c3ccccn3)CC2)cc1 [Biaryl 2a]	0.12	0.13
CC(NC(=O)c1ccccc1Cl)c1nnc(SCCOc2ccc(F)cc2)n1C (stereo not given) [Triazole 1b]	1.13	> 12.5
CC(NC(=O)c1ccccc1C(F)(F)F)c1nnc(SCCOc2ccc(F)cc2)n1C (stereo not given) [Triazole 1a]	0.09	5.5
CC(NC(=O)c1ccccc1C(F)(F)F)c1nnc(SCc2ccc(F)cc2)n1C (stereo not given) [Triazole 1c]	0.15	10.4
Cc1ccccc1OCCSc1nnc(C(C)NC(=O)c2ccccc2C(F)(F)F)n1C (stereo not given) [Triazole 1d]	0.14	2.82
N#Cc1ccc(-c2ccc(OCC(N)=O)cc2CN2CCN(c3ccccn3)CC2)cc1 [Biaryl 2b]	0.55	
CC(NC(=O)c1ccccc1C(F)(F)F)c1nnc(SCCOc2ccc(F)cc2)n1Cc1ccc(F)cc1 (stereo not given) [Triazole 1e]	0.05	0.69
